Experimental data: ChEMBL document CHEMBL1122550

Experiment: The ability to displace [3H]colchicine binding to rat brain tubulin protein
Parameters: concentration or dose not given beside the values
Conditions: concentration not given here

For COc1cc2c(c(OC)c1OC)-c1ccc(OC)c(=O)cc1[C@@H](NC(=O)[C@@H]1CC(C)(C)N([O])C1(C)C)CC2, which inhibition is on record?
The inhibition was 0%.

For COc1cc2c(c(OC)c1OC)-c1ccc(OC)c(=O)cc1[C@@H](NC(=O)[C@H]1CC(C)(C)N([O])C1(C)C)CC2, which inhibition is on record?
The inhibition was 0%.

With COc1cc2c(c(OC)c1OC)-c1ccc(OC)c(=O)cc1[C@@H](NC(=O)COC(=O)[C@@H]1CC(C)(C)N([O])C1(C)C)CC2 as the compound, how does the inhibition read?
The inhibition was 72%.

For COc1c(COC(=O)C2CC(C)(C)N([O])C2(C)C)c2c(c(OC)c1OC)-c1ccc(OC)c(=O)cc1[C@@H](NC(C)=O)CC2 (stereo partly specified), which inhibition is on record?
Its inhibition is 24%.

With COc1cc2c(c(OC)c1OC)-c1ccc(OC)c(=O)cc1[C@@H](NC(=O)COC(=O)C1CC(C)(C)N([O])C1(C)C)CC2 (stereo partly specified) as the compound, how does the inhibition read?
Its inhibition is 60%.

Which inhibition does the source give for COc1cc2c(c(OC)c1OC)-c1ccc(OC)c(=O)cc1[C@@H](NC(=O)COC(=O)[C@H]1CC(C)(C)N([O])C1(C)C)CC2 here?
Its inhibition is 65%.
